We go through 15 molecules from ChEMBL document CHEMBL3351958, “Structure-activity relationships of sugar-based peptidomimetics as modulators of amyloid β-peptide early oligomerization and fibrillization” (Eur J Med Chem, 2014).

In experiment [1] the target is Amyloid-beta precursor protein (Homo sapiens) (UniProt P05067). In words: Inhibition of amyloid beta (1 to 42) (unknown origin) oligomerization assessed as fold change in half-life of aggregation extension/reduction at 1:10 Abeta:compound ratio by thioflavin T assay based fluorescence microscopy.
For experiment [2] the target is unchanged. In words: Inhibition of amyloid beta (1 to 42) (unknown origin) oligomerization assessed as reduction in intensity of experimental fluorescence plateau at 1:10 Abeta:compound ratio by thioflavin T assay based fluorescence microscopy. Further details: scale not given: the % may be the effect or the level left.
The target is the same in experiment [3]. The experiment can be described thus: Inhibition of amyloid beta (1 to 42) (unknown origin) oligomerization assessed as fold change in half-life of aggregation extension/reduction at 1:1 Abeta:compound ratio by thioflavin T assay based fluorescence microscopy.
Experiment [4] has the same target. The experiment can be described thus: Inhibition of amyloid beta (1 to 42) (unknown origin) oligomerization assessed as reduction in intensity of experimental fluorescence plateau at 1:1 Abeta:compound ratio by thioflavin T assay based fluorescence microscopy.
Experiment [5] has the same target. The experiment can be described thus: Inhibition of amyloid beta (1 to 42) (unknown origin) oligomerization assessed as increase in intensity of experimental fluorescence plateau at 1:10 Abeta:compound ratio by thioflavin T assay based fluorescence microscopy. Further details: scale not given: the % may be the effect or the level left.
The target is the same in experiment [6]. The experiment can be described thus: Inhibition of amyloid beta (1 to 42) (unknown origin) fibril formation at 100 uM after 4 to 24 hrs by transmission electron microscopy.
Experiment [7] shares this target. In words: Inhibition of amyloid beta (1 to 42) (unknown origin) oligomer formation at 1:1 Abeta:compound ratio after 4 to 6 hrs by capillary electrophoresis.
The target is the same in experiment [8]. In words: Inhibition of amyloid beta (1 to 42) (unknown origin) oligomer formation at 1:2 Abeta:compound ratio after 4 to 6 hrs by capillary electrophoresis.
Experiment [9] shares this target. In words: Inhibition of amyloid beta (1 to 42) (unknown origin) oligomer formation at 1:10 Abeta:compound ratio after 4 to 6 hrs by capillary electrophoresis.
Experiment [10] has the same target. The experiment can be described thus: Inhibition of amyloid beta (1 to 42) (unknown origin) oligomerization assessed as fold change in half-life of aggregation extension/reduction at 1:5 Abeta:compound ratio by thioflavin T assay based fluorescence microscopy.
The target is the same in experiment [11]. The experiment can be described thus: Inhibition of amyloid beta (1 to 42) (unknown origin) oligomerization assessed as reduction in intensity of experimental fluorescence plateau at 1:5 Abeta:compound ratio by thioflavin T assay based fluorescence microscopy. Also noted: scale not given: the % may be the effect or the level left.
Experiment [12] has the same target. In words: Inhibition of amyloid beta (1 to 42) (unknown origin) oligomer formation at 100 uM after 4 to 6 hrs by capillary electrophoresis.
For experiment [13] the target is unchanged. In words: Inhibition of amyloid beta (1 to 42) (unknown origin) oligomer formation assessed as monomer stabilization at 100 uM after 4 to 6 hrs by capillary electrophoresis.

Molecules are shown by their SMILES. Activity calls are given as the source filed them. The rule behind the calls is not given here. Numbered stars: 1 amine (or outer) side, 2 acyl side, 3 side chain; on linkers, the order of the positions; unused ones are H or OH. Square brackets hold non-standard residues; d marks the D form. Peptide text beside a SMILES is read from it. * marks the point of attachment. X1 = O=C(CCOC[C@H]1O[C@@H](OCCCN[*:1])[C@H](O)[C@@H](O)[C@@H]1O)[*:2]; X2 = O=C(CCOC[C@H]1O[C@@H](OCCN[*:1])[C@H](O)[C@@H](O)[C@@H]1O)[*:2]; X4 = O=C(CCOC[C@H]1O[C@H](OCCCN[*:1])[C@H](O)[C@@H](O)[C@@H]1O)[*:2]; X3 = O=C(CCOC[C@H]1O[C@H](OCCN[*:1])[C@H](O)[C@@H](O)[C@@H]1O)[*:2]; Boc = CC(C)(C)OC(=O)*

Sequence of Amyloid-beta precursor protein (Homo sapiens) (P05067 whole entry): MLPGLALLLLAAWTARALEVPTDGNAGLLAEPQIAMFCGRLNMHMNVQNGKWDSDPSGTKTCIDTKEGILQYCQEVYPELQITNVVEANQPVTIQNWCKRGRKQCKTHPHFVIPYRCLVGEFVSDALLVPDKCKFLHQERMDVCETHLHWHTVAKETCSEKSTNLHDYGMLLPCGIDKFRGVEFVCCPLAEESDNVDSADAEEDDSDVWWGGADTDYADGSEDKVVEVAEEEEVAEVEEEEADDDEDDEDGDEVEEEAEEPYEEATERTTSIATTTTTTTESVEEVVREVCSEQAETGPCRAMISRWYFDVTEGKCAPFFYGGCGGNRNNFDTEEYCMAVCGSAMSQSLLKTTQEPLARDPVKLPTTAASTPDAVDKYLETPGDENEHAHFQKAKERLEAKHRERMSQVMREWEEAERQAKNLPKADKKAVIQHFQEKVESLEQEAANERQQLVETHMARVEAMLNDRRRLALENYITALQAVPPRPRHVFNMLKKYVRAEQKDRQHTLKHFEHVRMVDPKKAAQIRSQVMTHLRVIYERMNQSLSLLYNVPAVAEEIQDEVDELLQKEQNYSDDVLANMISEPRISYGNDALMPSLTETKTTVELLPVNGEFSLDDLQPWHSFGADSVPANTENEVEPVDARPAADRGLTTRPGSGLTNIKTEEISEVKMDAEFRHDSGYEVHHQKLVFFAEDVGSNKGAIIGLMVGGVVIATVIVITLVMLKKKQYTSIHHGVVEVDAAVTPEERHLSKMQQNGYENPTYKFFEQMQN

With `COC(=O)[C@H](CC(C)C)NC(=O)[C@@H](NC(=O)CCOC[C@H]1OC(O)[C@H](O)[C@@H](O)[C@@H]1O)C(C)C` (stereo partly drawn), the “fold change (FC)” value in experiment [1] was “inactive”. Also, the result in [2] was inactive. In experiment [3], the “fold change in aggregation half-life” value is “inactive”. Also, the inhibition result in [4] is “inactive”.
On to `COC(=O)[C@H](CC(C)C)NC(=O)[C@@H](NC(=O)CCOC[C@H]1OC(O)[C@H](OCc2ccccc2)[C@@H](OCc2ccccc2)[C@@H]1OCc1ccccc1)C(C)C` (stereo partly drawn), for which, in [1], the fold change (FC) turned out to be 0.8. Further, the Activity in [5] amounted to 14%. Further, the “fold change in aggregation half-life” value in experiment [3] is “inactive”. Besides, the inhibition entry in experiment [4] was “inactive”.
Take `COC(=O)[C@H](CC(C)C)NC(=O)[C@@H](NC(=O)CCOC[C@H]1O[C@@H](OCCCNC(=O)[C@@H](NC(=O)[C@H](C)NC(=O)OC(C)(C)C)C(C)C)[C@H](OC(C)=O)[C@@H](OC(C)=O)[C@@H]1OC(C)=O)C(C)C`: in experiment [1], the “fold change (FC)” value was “inactive”. In addition, the result in experiment [2] was inactive. Further, the “fold change in aggregation half-life” value in [3] is “inactive”. The inhibition entry in experiment [4] is “inactive”.
As to `COC(=O)[C@H](CC(C)C)NC(=O)[C@@H](NC(=O)CCOC[C@H]1O[C@@H](OCCCNC(=O)[C@@H](NC(=O)[C@H](C)NC(=O)OC(C)(C)C)C(C)C)[C@H](OCc2ccccc2)[C@@H](OCc2ccccc2)[C@@H]1OCc1ccccc1)C(C)C`, the fold change (FC) in experiment [1] was found to be 0.7. Besides, the Activity in experiment [5] turned out to be 27%. Moreover, the “fold change in aggregation half-life” value in [3] was “inactive”. In addition, the inhibition result in experiment [4] and in experiment [7] was “inactive” in each case. For the same molecule, the inhibition result in experiment [6] and in [8] was “Active” in each case.
Regarding `COC(=O)[C@H](CC(C)C)NC(=O)[C@@H](NC(=O)CCOC[C@H]1O[C@@H](OCCNC(=O)[C@@H](NC(=O)[C@H](C)NC(=O)OC(C)(C)C)C(C)C)[C@H](OCc2ccccc2)[C@@H](OCc2ccccc2)[C@@H]1OCc1ccccc1)C(C)C`, the fold change (FC) in [1] is 0.8. Besides, in experiment [5], the Activity stood at 38%. In [3], the “fold change in aggregation half-life” value was “inactive”. Besides, the inhibition result in [4] was “inactive”.
Regarding `COC(=O)[C@H](CC(C)C)NC(=O)[C@@H](NC(=O)CCOC[C@H]1O[C@H](OCCNC(=O)[C@@H](NC(=O)[C@H](C)NC(=O)OC(C)(C)C)C(C)C)[C@H](OC(C)=O)[C@@H](OC(C)=O)[C@@H]1OC(C)=O)C(C)C`, in experiment [1], the “fold change (FC)” value was “inactive”. In addition, the result in experiment [2] was inactive. Further, the “fold change in aggregation half-life” value in [3] was “inactive”. In addition, the inhibition entry in [4] was “inactive”.
As to `OC[C@H]1OC(O)[C@H](O)[C@@H](O)[C@@H]1O` (stereo partly drawn), the “fold change (FC)” value in experiment [1] is “inactive”. The outcome in experiment [2] was inactive. Besides, the “fold change in aggregation half-life” value in [3] was “inactive”. Also, the inhibition result in [4] was “inactive”.
Turning to `COC(=O)[C@H](CC(C)C)NC(=O)[C@@H](NC(=O)CCOC[C@H]1O[C@@H](OCCCNC(=O)[C@@H](NC(=O)[C@H](C)NC(=O)OC(C)(C)C)C(C)C)[C@H](O)[C@@H](O)[C@@H]1O)C(C)C` (Boc-AV[X1]VL-OMe), the fold change (FC) in [1] was 1.9. Besides, in [2], the Activity was 37%. For the same molecule, in experiment [3], the “fold change in aggregation half-life” value was “inactive”. Moreover, the inhibition entry in experiment [4], in experiment [6], in experiment [9] and in experiment [7] was “inactive” in each case.
On to `COC(=O)[C@H](CC(C)C)NC(=O)[C@@H](NC(=O)CCOC[C@H]1O[C@@H](OCCNC(=O)[C@@H](NC(=O)[C@H](C)NC(=O)OC(C)(C)C)C(C)C)[C@H](O)[C@@H](O)[C@@H]1O)C(C)C` (Boc-AV[X2]VL-OMe), for which, in experiment [1], the fold change (FC) stood at 1.8. For the same molecule, the Activity in [2] was found to be 29%. In addition, in experiment [3], the “fold change in aggregation half-life” value is “inactive”. The inhibition result in experiment [4] was “inactive”.
For `COC(=O)[C@H](CC(C)C)NC(=O)[C@@H](NC(=O)CCOC[C@H]1O[C@H](OCCNC(=O)[C@@H](NC(=O)[C@H](C)NC(=O)OC(C)(C)C)C(C)C)[C@H](O)[C@@H](O)[C@@H]1O)C(C)C` (Boc-AV[X3]VL-OMe), the “fold change (FC)” value in [1] was “inactive”. Further, in experiment [2], the result was inactive. Besides, the “fold change in aggregation half-life” value in experiment [3] is “inactive”. For the same molecule, the inhibition result in experiment [4] is “inactive”.
In the case of `COC(=O)[C@H](CC(C)C)NC(=O)[C@@H](NC(=O)CCOC[C@H]1O[C@H](OCCCNC(=O)[C@@H](NC(=O)[C@H](C)NC(=O)OC(C)(C)C)C(C)C)[C@H](O)[C@@H](O)[C@@H]1O)C(C)C` (Boc-AV[X4]VL-OMe), in experiment [1], the “fold change (FC)” value is “inactive”. In addition, in experiment [2], the result was inactive. Further, the “fold change in aggregation half-life” value in experiment [3] was “inactive”. Also, the inhibition result in experiment [4] was “inactive”.
For the molecule `COC(=O)[C@H](CC(C)C)NC(=O)[C@@H](NC(=O)OC(C)(C)C)C(C)C` (Boc-Val-Leu-OMe), the “fold change (FC)” value in experiment [1] is “inactive”. Besides, the result in [2] was inactive. Also, the “fold change in aggregation half-life” value in experiment [3] was “inactive”. Further, the inhibition entry in [4] is “inactive”.
As for `COC(=O)[C@H](CC(C)C)NC(=O)[C@@H](NC(=O)CCOC[C@H]1O[C@@H](OCCCNC(=O)[C@@H](NC(=O)[C@H](C)N)C(C)C)[C@H](O)[C@@H](O)[C@@H]1O)C(C)C` (H-AV[X1]VL-OMe), the figures for the fold change (FC) in [1] and in experiment [10] were 2.8 and 2.1, respectively. The Activity came out at 56% in experiment [2] and 40% in experiment [11]. The “fold change in aggregation half-life” value in experiment [3] is “inactive”. The inhibition result in experiment [4] is “inactive”. Further, the inhibition result in [6], in experiment [12], in experiment [13], in experiment [9] and in experiment [7] was “Active” in each case.
Take `COC(=O)[C@H](CC(C)C)NC(=O)[C@@H](NC(=O)CCOC[C@H]1O[C@@H](OCCNC(=O)[C@@H](NC(=O)[C@H](C)N)C(C)C)[C@H](O)[C@@H](O)[C@@H]1O)C(C)C` (H-AV[X2]VL-OMe): in [1], the “fold change (FC)” value is “inactive”. The outcome in experiment [2] was inactive. Besides, the “fold change in aggregation half-life” value in [3] is “inactive”. Also, the inhibition result in experiment [4] was “inactive”.
In the case of `COC(=O)[C@H](CC(C)C)NC(=O)[C@@H](N)C(C)C` (H-Val-Leu-OMe), the “fold change (FC)” value in [1] is “inactive”. In addition, the result in [2] was inactive. Besides, the “fold change in aggregation half-life” value in [3] was “inactive”. In experiment [4], the inhibition result was “inactive”.
